From US12077503B2, “Substituted cyclic amides and their use as herbicides” (FMC CORPORATION, priority 2015, dated 2024)

Key:
Format in all cases: in vivo
[1] = system: ryegrass, Italian (Italian ryegrass, Lolium multiflorum); assay: Test A postemergence; settings: Lolium multiflorum, post-emergence, 240 h, 125 g ai/ha, postemergence, visual injury vs untreated controls after approx. 10 d; 0 = no effect, 100 = complete control; read-out: Ryegrass, Italian plant response rating (0 to 100 scale)
Method in brief: (§1)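 Each rating is a visual injury score from 0 to 100 given about 10 d after treatment, judged against untreated controls kept alongside in the greenhouse. In loam soil–sand blend, seeds got a preemergence directed soil spray, while postemergence plants were 2 to 10 cm tall at spraying.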

[2] = system: wheat (Triticum aestivum); assay: Test A postemergence; settings: Triticum aestivum, post-emergence, 240 h, 125 g ai/ha, postemergence, visual injury vs untreated controls after approx. 10 d; 0 = no effect, 100 = complete control; read-out: Wheat plant response rating (0 to 100 scale)
Method in brief: as §1

[3] = system: corn (Zea mays); assay: Test A postemergence; settings: Zea mays, post-emergence, 240 h
Method in brief: as §1

[4] = system: barnyardgrass (Echinochloa crus-galli); assay: Test A postemergence; settings: Echinochloa crus-galli, post-emergence, 240 h
Method in brief: as §1

[5] = system: pigweed (Amaranthus retroflexus); assay: Test A postemergence; settings: Amaranthus retroflexus, post-emergence, 240 h, 125 g ai/ha, postemergence, visual injury vs untreated controls after approx. 10 d; 0 = no effect, 100 = complete control; read-out: Pigweed plant response rating (0 to 100 scale)
Method in brief: as §1

[6] = system: Galium (catchweed bedstraw, Galium aparine); assay: Test A postemergence; settings: Galium, post-emergence, 240 h
Method in brief: as §1

[7] = system: ragweed (common ragweed, Ambrosia elatior); assay: Test A postemergence; settings: Ambrosia artemisiifolia, post-emergence, 240 h, 125 g ai/ha, postemergence, visual injury vs untreated controls after approx. 10 d; 0 = no effect, 100 = complete control; read-out: Ragweed plant response rating (0 to 100 scale)
Method in brief: as §1

[8] = system: blackgrass (Alopecurus myosuroides); assay: Test A postemergence; settings: Alopecurus myosuroides, post-emergence, 240 h
Method in brief: as §1

[9] = system: Kochia (Kochia scoparia); assay: Test A postemergence; settings: Bassia scoparia, post-emergence, 240 h
Method in brief: as §1

[10] = system: giant foxtail (Setaria faberii); assay: Test A postemergence; settings: Setaria faberi, post-emergence, 240 h
Method in brief: as §1

[11] = system: sedge, umbrella (small-flower umbrella sedge, Cyperus difformis); assay: Test B flooded paddy test; settings: Cyperus difformis, 250 g ai/ha, Flood; 0 to 100 scale where 0 is no effect and 100 is complete control; read-out: Sedge, Umbrella plant response rating
Method in brief: (§2)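 Rating scale 0–100 (visual, vs untreated controls) after a 13–15 d greenhouse period; application to the flood layer, 3 cm above soil and maintained; plants at 2-leaf stage when treated.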

[12] = system: barnyardgrass (Echinochloa crus-galli); assay: Test B flooded paddy test; settings: Echinochloa crus-galli, 250 g ai/ha, Flood; 0 to 100 scale where 0 is no effect and 100 is complete control; read-out: Barnyardgrass plant response rating
Method in brief: as §2

[13] = system: ducksalad (Heteranthera limosa); assay: Test B flooded paddy test; settings: Heteranthera limosa, 250 g ai/ha, Flood; 0 to 100 scale where 0 is no effect and 100 is complete control; read-out: Ducksalad plant response rating
Method in brief: as §2

[14] = system: rice (Oryra sativa); assay: Test B flooded paddy test; settings: Oryza sativa, 250 g ai/ha, Flood; 0 to 100 scale where 0 is no effect and 100 is complete control; read-out: Rice plant response rating
Method in brief: as §2

[15] = system: ryegrass, Italian (Italian ryegrass, Lolium multiflorum); assay: Test A preemergence; settings: Lolium multiflorum, pre-emergence, 240 h, 0 to 100 scale where 0 is no effect and 100 is complete control, read-out: Ryegrass, Italian plant response rating
Method in brief: as §1

[16] = system: barnyardgrass (Echinochloa crus-galli); assay: Test A preemergence; settings: Echinochloa crus-galli, pre-emergence, 240 h, 0 to 100 scale where 0 is no effect and 100 is complete control, read-out: Barnyardgrass plant response rating
Method in brief: as §1

[17] = system: pigweed (Amaranthus retroflexus); assay: Test A preemergence; settings: Amaranthus retroflexus, pre-emergence, 240 h, 0 to 100 scale where 0 is no effect and 100 is complete control, read-out: Pigweed plant response rating
[18] = system: ragweed (common ragweed, Ambrosia elatior); assay: Test A preemergence; settings: Ambrosia artemisiifolia, pre-emergence, 240 h, 0 to 100 scale where 0 is no effect and 100 is complete control, read-out: Ragweed plant response rating
Method in brief: as §1

[19] = system: Kochia (Kochia scoparia); assay: Test A preemergence; settings: Bassia scoparia, pre-emergence, 240 h, 0 to 100 scale where 0 is no effect and 100 is complete control, read-out: Kochia plant response rating
Method in brief: as §1

[20] = system: giant foxtail (Setaria faberii); assay: Test A preemergence; settings: Setaria faberi, pre-emergence, 240 h, 0 to 100 scale where 0 is no effect and 100 is complete control, read-out: Foxtail, Giant plant response rating
Method in brief: as §1

[21] = 125 g ai/ha, preemergence, visual injury rating, approximately 10 d

COc1ccc(C(F)(F)F)cc1[C@H]1CN(C)C(=O)[C@@H]1C(=O)Nc1cccc(F)c1F [Compound 1184]
pest or weed control at 125 g/ha [1]: 30%
plant injury at 125 g/ha [2]: 60%
plant injury at 125 g/ha ([3]; 125 g ai/ha, postemergence, visual injury vs untreated controls after approx. 10 d, 0 = no effect, 100 = complete control, read-out: Corn plant response rating (0 to 100 scale)): 40%
Corn plant response rating (crop injury, 0 = no effect, 100 = complete kill) at 31 g/ha ([3]; Postemergence, 31 g ai/ha, visual injury after approx. 10 d, 0 to 100 scale, 0 no effect, 100 complete control): 50%
pest or weed control at 125 g/ha ([4]; 125 g ai/ha, postemergence, visual injury vs untreated controls after approx. 10 d, 0 = no effect, 100 = complete control, read-out: Barnyardgrass plant response rating (0 to 100 scale)): 80%
pest or weed control at 31 g/ha ([4]; Postemergence, 31 g ai/ha, visual injury after approx. 10 d, 0 to 100 scale, 0 no effect, 100 complete control, read-out: Plant response rating, Barnyardgrass): 70%
pest or weed control at 125 g/ha [5]: 0%
pest or weed control at 125 g/ha ([6]; 125 g ai/ha, postemergence, visual injury vs untreated controls after approx. 10 d, 0 = no effect, 100 = complete control, read-out: Galium plant response rating (0 to 100 scale)): 20%
pest or weed control at 31 g/ha ([6]; Postemergence, 31 g ai/ha, visual injury after approx. 10 d, 0 to 100 scale, 0 no effect, 100 complete control, read-out: Plant response rating, Galium): 0%
pest or weed control at 125 g/ha [7]: 0%
pest or weed control at 125 g/ha ([8]; 125 g ai/ha, postemergence, visual injury vs untreated controls after approx. 10 d, 0 = no effect, 100 = complete control, read-out: Blackgrass plant response rating (0 to 100 scale)): 60%
pest or weed control at 31 g/ha ([8]; Postemergence, 31 g ai/ha, visual injury after approx. 10 d, 0 to 100 scale, 0 no effect, 100 complete control, read-out: Plant response rating, Blackgrass): 30%
pest or weed control at 125 g/ha ([9]; 125 g ai/ha, postemergence, visual injury vs untreated controls after approx. 10 d, 0 = no effect, 100 = complete control, read-out: Kochia plant response rating (0 to 100 scale)): 0%
pest or weed control at 31 g/ha ([9]; Postemergence, 31 g ai/ha, visual injury after approx. 10 d, 0 to 100 scale, 0 no effect, 100 complete control, read-out: Plant response rating, Kochia): 0%
pest or weed control at 125 g/ha ([10]; 125 g ai/ha, postemergence, visual injury vs untreated controls after approx. 10 d, 0 = no effect, 100 = complete control, read-out: Foxtail, Giant plant response rating (0 to 100 scale)): 80%
pest or weed control at 31 g/ha ([10]; Postemergence, 31 g ai/ha, visual injury after approx. 10 d, 0 to 100 scale, 0 no effect, 100 complete control, read-out: Plant response rating, Foxtail, Giant): 80%
pest or weed control at 250 g/ha [11]: 0%
pest or weed control at 250 g/ha [12]: 90%
pest or weed control at 250 g/ha [13]: 95%
pest or weed control at 250 g/ha [14]: 15%
pest or weed control at 31 g/ha ([15]; 31 g ai/ha, Preemergence): 40%
pest or weed control at 125 g/ha [15, 21]: 50%
pest or weed control at 31 g/ha ([16]; 31 g ai/ha, Preemergence): 90%
pest or weed control at 125 g/ha [16, 21]: 100%
pest or weed control at 31 g/ha ([17]; 31 g ai/ha, Preemergence): 0%
pest or weed control at 125 g/ha [17, 21]: 0%
pest or weed control at 31 g/ha ([18]; 31 g ai/ha, Preemergence): 0%
pest or weed control at 125 g/ha [18, 21]: 0%
pest or weed control at 31 g/ha ([19]; 31 g ai/ha, Preemergence): 0%
pest or weed control at 125 g/ha [19, 21]: 0%
pest or weed control at 31 g/ha ([20]; 31 g ai/ha, Preemergence): 80%
pest or weed control at 125 g/ha [20, 21]: 90%
